Laboratory results reported in patent US11666558B2, “Methods of treating intraocular pressure with activators of Tie-2” (EyePoint Pharmaceuticals, Inc., priority 2015, dated 2023).
Where two headings read alike, the source gives them in different places.

Assay: Ocular tissue concentrations (aqueous humor, vitreous humor, iris, retina, choroid, cornea) after topical ocular, subcutaneous and intravitreal administration
Format: in vivo, New Zealand White rabbits
Conditions: New Zealand White, rabbit; for concentration at 6 h / concentration at 24 h / concentration at 48 h / concentration at 72 h: other: intravitreal, 2.5 mg/eye
Method: To measure the concentration of Compound 1 in plasma and ocular tissues following topical ocular, subcutaneous, and intravitreal administration, New Zealand White rabbits were administered Compound 1, and plasma and ocular samples were collected at pre-determined time points. Compound 1 formulations were prepared fresh on each day of dosing.
Ocular tissue samples from both eyes of each animal were collected and weights were recorded. Plasma and ocular tissue sample concentrations of Compound 1 were determined by LC-MS/MS.
New Zealand White rabbits weighing 2.5 to 3.5 kg were used on this study. Rabbits were housed one per cage. Animals were not fasted and only healthy animals with no ocular illness were used. Two rabbits per group were sacrificed at each of four ocular tissue sampling time points for a total of eight rabbits per group.
Animals were anesthetized for ocular (topical) and intravitreal dosing following the 12IA7 IACUC protocol. Each rabbit received a bolus dose of test formulation either via topical ocular administration 3 times daily on Days 1 and 2 (at 0, 6, and 12 hours), and once on Day 3 (at 0 hours) into both eyes; via intravitreal administration into both eyes once on Day 1 (at 0 hours); or via subcutaneous administration 2 times daily on Days 1 and 2 (at 0 and 8 hours) and once daily on Day 3 (at 0 hours). Doses were given within an approximately 1 hour window each day where applicable.
On Day 1, for intravitreal administration, or on Day 3, for topical ocular and subcutaneous administration, at the appropriate ocular tissue collection time points, animals were euthanized and both eyes were enucleated immediately. Following enucleation, each eye was rinsed with phosphate-buffered saline. Ocular tissue samples from both eyes of each animal were collected at predetermined time points and weights were recorded. All the samples were frozen immediately on dry ice, and stored at −60° C. to −80° C. pending bioanalysis.
An LC-MS/MS method was developed for the determination of Compound 1 in rabbit aqueous tissues (plasma, aqueous and vitreous humor) and solid ocular tissue samples. A pre-study standard curve was analyzed to determine the specificity, range, and lower limit of quantitation of the method. Plasma and tissue homogenate study samples were extracted and analyzed. All the samples were treated identically to the standards.
One eight-point standard curve was used in each analytical batch. To be accepted, each batch must have had at least five of eight standards with accuracy within ±20% of nominal, except at the lower limit of quantification (LLOQ), where ±25% was acceptable.
Concentration versus time data is plotted in FIGS. 3-16. All data are expressed as ng/g of the free drug. Samples that were below the limit of quantitation (0.2 ng/mL) were not used in the calculation of averages.

[1] = iris homogenate, Iris homogenate, OD, sodium salt, intravitreal 2.5 mg/eye, Group 4, read-out: Iris Conc. (ng/mL) OD
[2] = iris homogenate, Iris homogenate, OS, sodium salt, intravitreal 2.5 mg/eye, Group 4, read-out: Iris Conc. (ng/mL) OS
[3] = iris homogenate, Iris homogenate, left eye, intravitreal 2.5 mg/eye (group 5), individual animals, read-out: Conc. (ng/mL) OS
[4] = iris homogenate, Iris homogenate, right eye, intravitreal 2.5 mg/eye (group 5), individual animals, read-out: Conc. (ng/mL) OD
[5] = iris homogenate, subcutaneous, 5 mg/kg/dose, Iris homogenate, OD, sodium salt, subcutaneous 5 mg/kg/dose, Group 2, read-out: Iris Conc. (ng/mL) OD
[6] = iris homogenate, subcutaneous, 5 mg/kg/dose, Iris homogenate, OS, free acid, subcutaneous 5 mg/kg/dose, Group 3, read-out: Iris Conc. (ng/mL) OS
[7] = iris homogenate, subcutaneous, 5 mg/kg/dose, Iris homogenate, OS, sodium salt, subcutaneous 5 mg/kg/dose, Group 2, read-out: Iris Conc. (ng/mL) OS
[8] = iris homogenate, subcutaneous, 5 mg/kg/dose, TABLE 16: Iris homogenate, OS, free acid, subcutaneous 5 mg/kg/dose, Group 3, read-out: Iris Conc. (ng/mL) OS
[9] = iris, Iris, OD, sodium salt, intravitreal 2.5 mg/eye, Group 4, read-out: Iris Conc. (ng/g) OD
[10] = iris, Iris, OS, sodium salt, intravitreal 2.5 mg/eye, Group 4, read-out: Iris Conc. (ng/g) OS
[11] = iris, Iris, average, intravitreal 2.5 mg/eye (group 5), read-out: Avg.
[12] = iris, Iris, left eye, intravitreal 2.5 mg/eye (group 5), individual animals, read-out: Conc. (ng/g) OS
[13] = iris, Iris, right eye, intravitreal 2.5 mg/eye (group 5), individual animals, read-out: Conc. (ng/g) OD
[14] = iris, Iris, sodium salt, intravitreal 2.5 mg/eye, Group 4, read-out: Iris Avg.
[15] = iris, subcutaneous, 5 mg/kg/dose, Iris, OD, sodium salt, subcutaneous 5 mg/kg/dose, Group 2, read-out: Iris Conc. (ng/g) OD
[16] = iris, subcutaneous, 5 mg/kg/dose, Iris, OS, free acid, subcutaneous 5 mg/kg/dose, Group 3, read-out: Iris Conc. (ng/g) OS
[17] = iris, subcutaneous, 5 mg/kg/dose, Iris, free acid, subcutaneous 5 mg/kg/dose, Group 3, read-out: Iris Average
[18] = iris, subcutaneous, 5 mg/kg/dose, Iris, sodium salt, subcutaneous 5 mg/kg/dose, Group 2, read-out: Iris Average
[19] = iris, subcutaneous, 5 mg/kg/dose, Iris, OS, sodium salt, subcutaneous 5 mg/kg/dose, Group 2, read-out: Iris Conc. (ng/g) OS
[20] = iris, subcutaneous, 5 mg/kg/dose, TABLE 16: Iris, OS, free acid, subcutaneous 5 mg/kg/dose, Group 3, read-out: Iris Conc. (ng/g) OS
[21] = iris, subcutaneous, 5 mg/kg/dose, TABLE 16: Iris, free acid, subcutaneous 5 mg/kg/dose, Group 3, read-out: Iris Average

COC(=O)N[C@@H](Cc1ccccc1)C(=O)N[C@@H](Cc1ccc(NS(=O)(=O)O)cc1)c1csc(-c2cccs2)n1 [Compound 1]
concentration at 4 h (cornea, subcutaneous, 5 mg/kg/dose, TABLE 16: Cornea, OD, free acid, subcutaneous 5 mg/kg/dose, Group 3, read-out: Cornea Conc. (ng/g) OD): 10.4 ng/g
concentration at 4 h (cornea, subcutaneous, 5 mg/kg/dose, TABLE 16: Cornea, free acid, subcutaneous 5 mg/kg/dose, Group 3, read-out: Cornea Average): 15.8 ng/g
concentration at 6 h [1]: 35500 ng/mL
concentration at 6 h [2]: 34000 ng/mL
concentration at 6 h [3]: 13800 ng/mL
concentration at 6 h [4]: 18500 ng/mL
concentration at 24 h [1]: 6890 ng/mL
concentration at 24 h [3]: 14100 ng/mL
concentration at 24 h [4]: 7670 ng/mL
concentration at 48 h [1]: 2380 ng/mL
concentration at 48 h [2]: 1960 ng/mL
concentration at 48 h [3]: 1950 ng/mL
concentration at 48 h [4]: 1010 ng/mL
concentration at 72 h [1]: 169 ng/mL
concentration at 72 h [3]: 1800 ng/mL
concentration at 72 h [4]: 279 ng/mL
concentration at 0.5 h [5]: 27.7 ng/mL
concentration at 0.5 h [6]: 4.27 ng/mL
concentration at 1 h [5]: 11.4 ng/mL
concentration at 1 h [6]: 4.33 ng/mL
concentration at 1 h [7]: 8.87 ng/mL
concentration at 2 h (iris homogenate, subcutaneous, 5 mg/kg/dose, Iris homogenate, 2 hr, OD, free acid, subcutaneous 5 mg/kg/dose, Group 3, read-out: Iris Conc. (ng/mL) OD): 2.77 ng/mL
concentration at 2 h (iris homogenate, subcutaneous, 5 mg/kg/dose, Iris homogenate, 2 hr, OS, free acid, subcutaneous 5 mg/kg/dose, Group 3, read-out: Iris Conc. (ng/mL) OS): 2.68 ng/mL
concentration at 4 h (iris homogenate, subcutaneous, 5 mg/kg/dose, Iris homogenate, OD, free acid, subcutaneous 5 mg/kg/dose, Group 3, read-out: Iris Conc. (ng/mL) OD): 2.41 ng/mL
concentration at 4 hr [5]: 2.12 ng/mL
concentration at 4 h [6]: 1.54 ng/mL
concentration at 4 hr [7]: 3.1 ng/mL
concentration at 0.5 h [8]: 4.27 ng/mL
concentration at 1 h [8]: 4.33 ng/mL
concentration at 2 h (iris homogenate, subcutaneous, 5 mg/kg/dose, TABLE 16: Iris homogenate, 2 hr, OD, free acid, subcutaneous 5 mg/kg/dose, Group 3, read-out: Iris Conc. (ng/mL) OD): 2.77 ng/mL
concentration at 2 h (iris homogenate, subcutaneous, 5 mg/kg/dose, TABLE 16: Iris homogenate, 2 hr, OS, free acid, subcutaneous 5 mg/kg/dose, Group 3, read-out: Iris Conc. (ng/mL) OS): 2.68 ng/mL
concentration at 4 h (iris homogenate, subcutaneous, 5 mg/kg/dose, TABLE 16: Iris homogenate, OD, free acid, subcutaneous 5 mg/kg/dose, Group 3, read-out: Iris Conc. (ng/mL) OD): 2.41 ng/mL
concentration at 4 h [8]: 1.54 ng/mL
concentration at 6 h [9]: 390000 ng/g
concentration at 6 h [10]: 374000 ng/g
concentration at 6 h [11]: 211000 ng/g
concentration at 6 h [12]: 152000 ng/g
concentration at 6 h [13]: 204000 ng/g
concentration at 6 h [14]: 352000 ng/g
concentration at 24 h [9]: 75800 ng/g
concentration at 24 h [11]: 113000 ng/g
concentration at 24 h [12]: 155000 ng/g
concentration at 24 h [13]: 84400 ng/g
concentration at 24 h [14]: 141000 ng/g
concentration at 48 h [9]: 26200 ng/g
concentration at 48 h [10]: 21600 ng/g
concentration at 48 h [11]: 16800 ng/g
concentration at 48 h [12]: 21400 ng/g
concentration at 48 h [13]: 11100 ng/g
concentration at 48 h [14]: 24600 ng/g
concentration at 72 h [9]: 1860 ng/g
concentration at 72 h [11]: 10300 ng/g
concentration at 72 h [12]: 19800 ng/g
concentration at 72 h [13]: 3070 ng/g
concentration at 72 h [14]: 1550 ng/g
concentration at 0.5 h [15]: 305 ng/g
concentration at 0.5 h [16]: 47 ng/g
concentration at 0.5 h [17]: 50.3 ng/g
concentration at 0.5 h [18]: 459 ng/g
concentration at 1 h [15]: 125 ng/g
concentration at 1 h [16]: 47.6 ng/g
concentration at 1 h [19]: 97.6 ng/g
concentration at 1 h [17]: 58 ng/g
concentration at 1 h [18]: 94.7 ng/g
concentration at 2 h (iris, subcutaneous, 5 mg/kg/dose, Iris, 2 hr, OD, free acid, subcutaneous 5 mg/kg/dose, Group 3, read-out: Iris Conc. (ng/g) OD): 30.5 ng/g
concentration at 2 h (iris, subcutaneous, 5 mg/kg/dose, Iris, 2 hr, OS, free acid, subcutaneous 5 mg/kg/dose, Group 3, read-out: Iris Conc. (ng/g) OS): 29.5 ng/g
concentration at 2 h (iris, subcutaneous, 5 mg/kg/dose, Iris, 2 hr, free acid, subcutaneous 5 mg/kg/dose, Group 3, read-out: Iris Average): 27.6 ng/g
concentration at 2 hr (iris, subcutaneous, 5 mg/kg/dose, Iris, 2 hr, sodium salt, subcutaneous 5 mg/kg/dose, Group 2, read-out: Iris Average): 29.7 ng/g
concentration at 4 h (iris, subcutaneous, 5 mg/kg/dose, Iris, OD, free acid, subcutaneous 5 mg/kg/dose, Group 3, read-out: Iris Conc. (ng/g) OD): 26.5 ng/g
concentration at 4 hr [15]: 33.8 ng/g
concentration at 4 h [16]: 16.9 ng/g
concentration at 4 hr [19]: 34.1 ng/g
concentration at 4 h [17]: 17.5 ng/g
concentration at 4 hr [18]: 30.4 ng/g
concentration at 0.5 h [20]: 47 ng/g
concentration at 0.5 h [21]: 50.3 ng/g
concentration at 1 h [20]: 47.6 ng/g
concentration at 1 h [21]: 58 ng/g
